Measurements published in publication PMC10619691, “Effect of cyclic substituents on the anti-cancer activity and DNA interaction of ruthenium(II) bis-phenanthroline dipyridoquinoline” (Frontiers in Molecular Biosciences, 2023).

Key:
[1] = tested on: RF I φX174 supercoiled circular DNA; assay: supercoiled DNA unwinding by atomic force microscopy; format: binding; conditions: AFM; P/D = 14 for POW-12A and VNK-572, P/D = 5 for VNK-754
Experimental: FIGURE 7 AFM height images RF I φX174 on a magnesium-soaked mica surface over an area of 2 µm. Samples with the ruthenium complex had solution mixing ratios of P/D = 14 for POW-12A and VNK-572; and of P/D = 5 VNK-754.
Samples for atomic force microscopy (AFM) were prepared on mica crystals cut into squares of approximately 1 cm^2. These squares were stuck with double-sided tape to a 15-mm diameter metal disc. Before sample preparation, Cellotape was used to remove the top layer of the mica crystal, giving a freshly cleaved surface layer on which the sample is to be deposited. Mica was soaked in a 0.1 M solution of MgCl2 for 5 min and blown dry, and Mg^2+ was used to help DNA (negatively charged) adhere to the negatively charged surface of the mica. For solutions containing DNA and POW-12A or VNK-572, a P/D value of 14 was used. For the solution containing DNA and VNK-754, a P/D value of 5 was used. Then, 2 μL of the solution was pipetted onto the mica surface and left for 10 min until the solvent had evaporated, leaving the DNA adhered to the surface. To remove excess salt, each sample was washed three times with 10 µL nanopure water, drying with nitrogen after each wash. AFM was conducted using a Bruker Multi-mode 2 atomic force microscope operated with a NanoScope V controller. ScanAsyst-AIR AFM tips were purchased from Bruker. Scans were run in tapping mode using ScanAsyst, measuring height, peak force error, and phase. The spring constant was adjusted to the spring constant of the tip, which is 0.4 N m^−1 for ScanAsyst-AIR tips; feedback parameters were set automatically by ScanAsyst Auto. Scans were run over 2 μm^2 areas with 512 lines. Images were prepared using NanoScope analysis software. Raw data were processed using first-order flattening and third-order plane fitting. If the background required smoothening due to large molecules on the surface, first-order flattening with a threshold of Z < 0.05 nm was used to improve the appearance of the background. […]

HeLa cells [2] = assay: cellular localization by confocal fluorescence microscopy; format: cell-based, human; conditions: 50 μM, 2 h incubation, co-localization with DAPI
Experimental: This was further confirmed by the co-localization of these complexes with a nuclear counterstain (DAPI) (Figure 2).
Fluorescence microscopy was used to study cellular localization. HeLa cells were seeded on autoclaved coverslips in the 6-well plate and incubated at 37°C for 48 h, after which the culture media were replaced with media containing VNK-572 (50 μM) and VNK-754 (50 μM), respectively, and further incubation was performed for 2 h. Following this, the cells were fixed with Carnoy’s solution and washed twice with PBS thereafter. Finally, the HeLa cells were counterstained with DAPI, and the seeded coverslips were inverted and placed on slides for examination. A Leica confocal microscope was used for the observation of the samples using a magnification of ×63.

HeLa cells [3] = assay: Annexin V apoptosis assay; format: cell-based, human
Experimental: To further analyze the cytotoxicity mechanisms, annexin V was used to determine whether VNK-572/cisplatin exerts an anti-cancer activity through apoptosis. The Annexin V assay was performed following the established procedure. The steps included treating the cells with the complex for 24, 48, and 72 h in 6-well plates and incubating at 37°C. The cells were then rinsed with PBS, trypsinized, and neutralized using culture media. The cells were then spun in the centrifuge at 2500 RPM for 3 min, and the supernatant was discarded. The cell pellet was then washed first with PBS and then with ×1 binding buffer. The cells were then suspended in approximately 1 mL of binding buffer (1–5 million cells), and approximately 100 ul of this suspension was stained with 5 μL of annexin V-APC dye for 15 min. The cells were then washed with binding buffer and resuspended in 200 μL of binding buffer before being stained with 5 ul of propidium iodide. The cells were then analyzed using a flow cytometer within 4 h.

DU145 cells = assay: cell cycle analysis; format: cell-based, human
Experimental: (§1) The cell cycle of cervical HeLa and prostate DU145 cancer cells was studied after treatment with VNK-572 and cisplatin, respectively (Figure 3). VNK-572 and cisplatin both reduced the G2 population after 72 h compared to control (e.g., 16%–11% in Hela (p = 0.06) and from 17% to 2% in the DU145 cell line (p = 0.003) for VNK-572) (Figure 3A). […] The DU145 cells saw a decrease in both phases following 72 h of treatment—from 68% to 40% and from 11% to 5% for the G1 and S phases, respectively (Figure 3A).

HeLa cells [4] = assay: cell cycle analysis; format: cell-based, human
Experimental: as §1

SMILES	unwinding of supercoiled circular DNA [1]	cellular localization (HeLa cells [2])	Q2 (propidium iodide and annexin V APC-stained cells), late-stage apoptosis (HeLa cells [3]; 72 h of treatment, control 2%) [%]	Q4 (annexin V APC), early apoptosis (HeLa cells [3]; 72 h of treatment, control 14% (VNK-572), 13% (cisplatin)) [%]	Q1 (necrosis) (HeLa cells [3]; after 72 h of treatment) [%]	S phase population (DU145 cells; DU145, 72 h of treatment, control 11%) [%]	G1 phase population (DU145 cells; DU145, 72 h of treatment, control 68%) [%]	sub-G1 population (DU145 cells; DU145, after 72 h, control 1%) [%]	G2 population (DU145 cells; DU145, after 72 h, control 17%) [%]	changes in G1 / S phases (HeLa cells [4])	sub-G1 population (HeLa cells [4]; 72 h of treatment, control 5% (VNK-572), 6% (cisplatin)) [%]	G2 population (HeLa cells [4]; after 72 h, control 16%) [%]
F[P-](F)(F)(F)(F)F.F[P-](F)(F)(F)(F)F.[Ru+2].c1cnc2c(c1)c1ncc3c(c1c1cccnc12)CCC3.c1cnc2c(c1)ccc1cccnc12.c1cnc2c(c1)ccc1cccnc12 [POW-12A]	unwound	penetrate the nucleus	–	–	–	–	–	–	–	–	–	–
F[P-](F)(F)(F)(F)F.F[P-](F)(F)(F)(F)F.[Ru+2].c1cnc2c(c1)c1ncc3c(c1c1cccnc12)CCCC3.c1cnc2c(c1)ccc1cccnc12.c1cnc2c(c1)ccc1cccnc12 [VNK-572]	unwound	penetrate the nucleus	11	26	< 6	5	40	51	2	only slight changes	12	11
